Earlier results on one substance are cited in patent US10273546B2, “Method and composition for diagnosis or treatment of aggressive prostate cancer” (The Trustees of Columbia University in the City of New York, priority 2014, dated 2019).

The conditions of series [1]: human, in vivo.
Series [2] relates to Apo-B. Particulars: animal models.

Take Mipomersen: the toxic effects result in series [1] was “relatively mild”. Further, in series [2], the “repression of target apo-B expression” value is “robust and prolonged repression”.
